Assay results reported in patent US11963961B2, “Combination therapy comprising an ACC inhibitor” (Gilead Sciences, Inc., priority 2017, dated 2024).
Like-named read-outs stand apart in the source and are kept apart here.

How the values were obtained:
[1] = system: subjects with compensated cirrhosis due to NASH; assay: Proof-of-concept study of Compound 1 in compensated cirrhosis due to NASH; type: in vivo, human
Experimental: Methods: In a proof-of-concept study, 10 subjects with suspected compensated cirrhosis (Child-Turcotte-Pugh [CTP]-A) due to NASH (defined by any one of biopsy, liver stiffness by magnetic resonance elastography [MRE]≥4.67 kPa or transient elastography ≥14.0 kPa, or Fibrotest ≥0.75) received Compound 1 20 mg orally once daily for 12 weeks. Centrally-read magnetic resonance imaging-proton density fat fraction (MRI-PDFF) and MRE, and serum markers of fibrosis were measured at baseline (BL), Week 4 (W4), and Week 12 ([…]). For DNL determination, heavy water (^2H2O, 35 mL) was administered three times daily for one-week cycles prior to baseline, W4, and […]. Deuterium incorporation into palmitate was measured in fasting plasma samples by GC/MS, and mass isotopomer distribution analysis was used to calculate hepatic DNL and its inhibition by Compound 1.

[2] = system: non-cirrhotic subjects with NASH; assay: Phase 2 randomized placebo-controlled trial of Compound 1 in NASH: imaging, liver biochemistry, serum fibrosis markers, tolerability; type: in vivo, human; settings: for Liver stiffness by FibroScan, median relative change from baseline: W12, n = 40; for Hyaluronic acid, median relative change from baseline / PIII-NP, median relative change from baseline / TIMP-1, median relative change from baseline: W12, serum
Experimental: Methods: In this double-blind, placebo-controlled trial, 126 non-cirrhotic subjects with NASH diagnosed noninvasively by MRI proton density fat fraction (PDFF) ≥8% and liver stiffness ≥2.5 kPa by MR elastography (MRE), or historical liver biopsy consistent with NASH and stage 1 to 3 fibrosis, were randomized 2:2:1 to receive Compound 1 20 mg, Compound 1 5 mg, or placebo orally QD for 12 weeks ([…]). Centrally-read MRI-PDFF and MRE, and FibroScan and serum markers of fibrosis were measured at baseline and […]. In some subjects, liver stiffness and hepatic fat content by Controlled Attenuation Parameter (CAP) were assessed using transient elastography (FibroScan®; Echosens, Paris, France) at baseline (i.e. week 0) and week 12.

[3] = system: subjects with steatosis and F1-F3 fibrosis / NASH; settings: Compound 1 20 mg; for ≥30% reduction in MRI-PDFF, % of subjects: 12 weeks
Experimental: Ten subjects with steatosis (MRI-PDFF≥10%) and F1-F3 fibrosis (MRE≥2.88 kPa but non-cirrhotic based on FibroText <0.75, historical imaging and liver biopsy) were treated 20 mg Compound 1 for 12 weeks.
Four of the ten subjects were on fish oil or fenofibrate at baseline and continued the concomitant medication for the duration of the study. Throughout the study subjects were monitored for safety (adverse events, laboratory abnormalities), liver biochemistry, serum markers of fibrosis (ELF and its components TIMP-1, hyaluronic acid, PIII-NP) and cell death (CK18 M30 and M65), liver stiffness (MRE) and fat (MRI-PDFF) and the effect on de novo lipogensis was assessed using heavy water labeling.
The four subjects were analyzed in conjunction with eight subjects from the study described in Example 1. These twelve subjects were on fish oil or fibrates for at least six weeks of the study and included those who were on fish oil or fibrates at baseline or who had graded hypertriglyceridemia and were given fish oil or fibrates during the study.

[4] = Compound 1 5 mg orally QD, W12, n = 47
[5] = Compound 1 20 mg orally QD, W12, n = 46
[6] = Compound 1 20 mg, 5 mg, placebo, W12
[7] = split by fibrate/fish oil for > 6 weeks: without n = 47, with n = 12

## COc1ccccc1[C@H](Cn1c(=O)n(C(C)(C)C(=O)O)c(=O)c2c(C)c(-c3ncco3)sc21)OC1CCOCC1 [Compound 1, (R)-2-(1-(2-(2-methoxyphenyl)-2-((tetrahydro-2H-pyran-4-yl)oxy)ethyl)-5-methyl-6-(oxazol-2-yl)-2,4-dioxo-1,2-dihydrothieno[2,3-d]pyrimidin-3(4H)-yl)-2-methylpropanoic acid]
[1]; Compound 1 20 mg once daily, 10 subjects, responded to fibrate therapy
  Asymptomatic Grade 3 hypertriglyceridemia: One subject
[1]; Compound 1 20 mg once daily, 12 weeks
  Changes in MRE-stiffness or serum fibrosis markers: No significant changes
[1]; Compound 1 20 mg once daily, 12 weeks, no premature discontinuation
  Tolerability: well-tolerated
[1]; Compound 1 20 mg once daily, BL to W12
  Other lipid parameters: unchanged
[1]; Compound 1 20 mg once daily, W4, 5 of 10 subjects
  ≥30% relative decline in PDFF, % of subjects: 50%
[1]; Compound 1 20 mg once daily, W12, 7 of 10 subjects
  ≥30% relative decline in PDFF, % of subjects: 70%
[1]; Compound 1 20 mg once daily, W12, IQR (142, 248), BL 147 (105, 231), P=0.008
  Fasting triglycerides, median: 159 mg/dL
[1]; Compound 1 20 mg orally once daily, W12, BL 9.2, P=0.004
  Hepatic PDFF (MRI-PDFF), median: 4.6%
[1]; Compound 1 20 mg orally once daily, W12, BL 46, P=0.008
  Serum ALT, median: 32 U/L
[2]; Compound 1 5 mg orally QD, W12
  ALT, median relative change from baseline: −9.8%
[2]; Compound 1 5 mg orally QD, W12 (11/47)
  ≥30% reduction in MRI-PDFF, % of subjects: 23%
[2]; Compound 1 5 mg orally QD, W12 (19/47)
  ≥15% reduction in MRE-stiffness, % of subjects: 40%
[2]; Compound 1 5 mg orally QD
  Liver stiffness by FibroScan, median relative change from baseline: −8.4%
  Hyaluronic acid, median relative change from baseline: −0.7%
  PIII-NP, median relative change from baseline: −7.0%
  TIMP-1, median relative change from baseline: −2.9%
[2]; [4]
  MRE-stiffness, median relative change from baseline: −9.6%
  MRI-PDFF, median relative change from baseline: −13.0%
[2]; Compound 1 5 mg, W12
  MRI-PDFF, differences from placebo: not statistically significant
  Median alkaline phosphatase, change: unchanged
[2]; Compound 1 20 mg and 5 mg, week 12, differences not statistically significant
  Hepatic steatosis by CAP (Controlled Attenuation Parameter): Dose-dependent reductions
[2]; Compound 1 20 mg or 5 mg QD, 12 weeks
  Tolerability: generally well-tolerated
[2]; Compound 1 20 mg orally QD, W12
  ALT, median relative change from baseline: −20.5%
[2]; Compound 1 20 mg orally QD, W12 (15/46)
  ≥15% reduction in MRE-stiffness, % of subjects: 33%
[2]; Compound 1 20 mg orally QD, W12 (22/46)
  ≥30% reduction in MRI-PDFF, % of subjects: 48%
[2]; Compound 1 20 mg orally QD
  Liver stiffness by FibroScan, median relative change from baseline: −11.1%
  Hyaluronic acid, median relative change from baseline: −6.9%
  PIII-NP, median relative change from baseline: −13.9%
  TIMP-1, median relative change from baseline: −7.9%
[2]; [5]
  MRE-stiffness, median relative change from baseline: −5.5%
  MRI-PDFF, median relative change from baseline: −28.9%
[2]; Compound 1 20 mg, 5 mg, placebo
  Liver stiffness by FibroScan, M probe, change from baseline to week 12 between treatment groups: no differences
[2]; [6]
  Changes in liver stiffness by MRE: did not differ between groups
  Changes in other liver biochemistry tests and the composite ELF score among the treatment groups: not significantly different
[2]; Compound 1 20 mg, W12
  MRI-PDFF compared with placebo: statistically and clinically significant decrease
[2]; Compound 1 20 mg, W12, p=0.022 vs placebo
  Serum levels of TIMP-1: significant reductions
[2]; Compound 1 20 mg, W12, p≤0.001 vs placebo
  Median alkaline phosphatase, increase: 9%
[3]; all subjects (n = 59)
  ≥30% reduction in MRI-PDFF, % of subjects: 49%
  ALT, median relative change over 12 weeks: −21.9%
  ELF, median relative change over 12 weeks: −0.8%
  Fasting Glucose, median relative change over 12 weeks: −2.0%
  Hemoglobin A1c, median relative change over 12 weeks: −1.4%
  Hyaluronic acid, median relative change over 12 weeks: −5.9%
  MRE, median relative change over 12 weeks: −6.6%
  MRI-PDFF, median relative change over 12 weeks: −31.0%
  PIII-NP, median relative change over 12 weeks: −13.9%
  TIMP-1, median relative change over 12 weeks: −8.8%
[3]; [7]
  ≥30% reduction in MRI-PDFF, % of subjects: 43%
  ALT, median relative change over 12 weeks: −19.4%
  ELF, median relative change over 12 weeks: −0.35%
  Fasting Glucose, median relative change over 12 weeks: −1.9%
  Hemoglobin A1c, median relative change over 12 weeks: −1.4%
  Hyaluronic acid, median relative change over 12 weeks: −4.5%
  MRE, median relative change over 12 weeks: −3.2%
  MRI-PDFF, median relative change over 12 weeks: −27.9%
  PIII-NP, median relative change over 12 weeks: −13.9%
  TIMP-1, median relative change over 12 weeks: −7.85%
[3]; all subjects, only Phase 2 study of Example 1
  FibroScan, median relative change over 12 weeks: −11.1%
[3]; split by fibrate/fish oil for > 6 weeks, only Phase 2 study of Example 1, n = 6 with fibrate/fish oil
  FibroScan, median relative change over 12 weeks: −9.8%
